Series [1] concerns the target T1, GIRK1-S65A with GIRK2 (UniProt P48542+P48549, S65A).
T1 construct: expressed in transfected cells; host or cells: HEK293 cells
T1 sequence (P48549 1-501 S65A): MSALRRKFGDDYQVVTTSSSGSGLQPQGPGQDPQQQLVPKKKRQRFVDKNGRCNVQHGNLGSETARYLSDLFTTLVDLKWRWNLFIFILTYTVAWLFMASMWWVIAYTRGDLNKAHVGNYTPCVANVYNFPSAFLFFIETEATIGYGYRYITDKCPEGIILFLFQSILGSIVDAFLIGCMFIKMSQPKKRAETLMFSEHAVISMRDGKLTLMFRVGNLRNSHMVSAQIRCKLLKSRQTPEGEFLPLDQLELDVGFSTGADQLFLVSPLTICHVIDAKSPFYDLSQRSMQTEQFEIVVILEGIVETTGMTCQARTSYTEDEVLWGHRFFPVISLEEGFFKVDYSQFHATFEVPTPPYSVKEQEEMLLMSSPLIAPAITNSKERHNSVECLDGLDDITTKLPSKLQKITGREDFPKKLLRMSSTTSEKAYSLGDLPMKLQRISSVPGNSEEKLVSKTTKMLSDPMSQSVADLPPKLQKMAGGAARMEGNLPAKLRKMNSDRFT
T1 sequence (P48542 1-425): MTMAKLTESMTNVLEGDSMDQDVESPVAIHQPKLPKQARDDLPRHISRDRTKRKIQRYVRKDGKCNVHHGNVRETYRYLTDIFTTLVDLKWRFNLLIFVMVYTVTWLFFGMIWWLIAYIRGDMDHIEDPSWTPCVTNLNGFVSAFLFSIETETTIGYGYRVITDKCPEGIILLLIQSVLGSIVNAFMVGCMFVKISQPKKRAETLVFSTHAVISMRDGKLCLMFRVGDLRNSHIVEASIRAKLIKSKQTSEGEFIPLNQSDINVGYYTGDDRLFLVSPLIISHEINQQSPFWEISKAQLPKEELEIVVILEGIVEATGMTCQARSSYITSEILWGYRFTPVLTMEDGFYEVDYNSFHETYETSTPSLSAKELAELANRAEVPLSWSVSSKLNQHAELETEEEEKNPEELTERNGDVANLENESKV
The experiment in a line: 5-ptaseOCRL current inhibition, GIRK1/2 channels containing GIRK1-S65A subunits. Type of series: cell-based, human GIRK1, mouse GIRK2. The conditions noted are these: 10 μM GAT1508. An excerpt: To identify changes in specific channel residue interactions with PIP2 upon ligand binding, the inventors carried out Principal Component Analysis (PCA) in the presence and absence of ML297 and GAT1508. The PCA analysis implicated changes in the slide (or interfacial) helix interactions with PIP2 upon ligand binding. Polar interactions could be formed between GIRK2^FD(Y76) and GIRK4^FD(Y71) with the P(4,5) of PIP2 when ML297 was bound to the same subunit (FIG. 39 top, FIG. 40). In contrast, when GAT1508 was bound this interaction was retained by GIRK2^FD but not GIRK4^FD (FIG. 39 bottom, FIG. 40). The corresponding GIRK1(S65) residue (FIG. 41, highlighted with vertical rectangle) could be serving the same role in stabilizing the phosphoinositol headgroup for interactions with non-ligand binding subunits. As polar residues, both Ser and Tyr could form H-bond interactions with PIP2. […]
Patch-clamp recording: Whole-cell currents were recorded with an Axopatch 200B amplifier (Molecular Devices) controlled via a USB-interface (National Instruments) using WinWCP software (University of Strathclyde). […] The barium-sensitive component of the current, observed when cells were perfused with the high-K^+ buffer, was analyzed and was determined by perfusing 5 mM BaCl2 in the high-K^+ buffer at the end of each experiment. […]

Series [2] is described as follows: elevated plus maze (EPM). Format: in vivo, rat. As to conditions: 30 mg/kg; vehicle group 30.6±4.4; trend. The protocol: Elevated plus maze (EPM): The EPM, as described previously was performed in a black Plexiglas apparatus (Hamilton Kinder, San Diego, CA) that consists of two open arms and two closed arms each 50.17 cm long and 10.8 cm wide. The closed arms have walls that are 40.01 cm high. The entire apparatus is elevated 100 cm above the ground on a square aluminum base. For a testing period of 5 min, anxiety is estimated by the amount of time rats spend in the closed versus open arms. Test sessions were video recorded by ceiling mounted cameras.

As for `Cc1cc(NC(=O)Nc2ccc(Br)s2)n(-c2ccccc2)n1` [GAT1508, 1-(5-bromothiophen-2-yl)-3-(3-methyl-1-phenyl-1H-pyrazol-5-yl)urea], in series [1], the “protection of current from 5-ptaseOCRL (in words)” value is recorded as “not protected”. Further, the “time spent on the open arm” value in series [2] turned out to be 48.7 ± 8.3 s.

These data come from US12351574B2, “Selective ligands for modulation of GIRK channels” (Northeastern University, priority 2018, dated 2025).
